The source of these data is the NIST ThermoML archive (doi:10.1016/j.fluid.2007.03.013).

Each structure is given as a SMILES string. Numbers after ± are expanded uncertainties.

A short description of the data set: refractive index (Na D-line) (dimensionless). To be noted: 293.1 K; 101.33 kPa; Liquid; Standard Abbe refractometry.

By refractive index is commonly meant a measure of how strongly the sample bends light. In the case of `O=CN1CCOCC1` [N-formylmorpholine], the refractive index turned out to be 1.484 ± 0.0007.

In the case of `CC1CCCCC1` [methylcyclohexane], the refractive index stood at 1.423 ± 0.0007.
